Reference: PubChem BioAssay AID2060489 (Molecular Pharmacology Branch, DTP, NCI, 2025)

System: 922993-354-T-J3-PDC complex spheroids, viability
Test: Anticancer human tumor 922993-354-T-J3-PDC patient-derived endometrial carcinoma cell line growth inhibition [GQUAD]
Conditions: for IC50: curve of first compound; for viability, T/C: stronger effect = lower value; active = viability on the fitted dose curve at most 10% of control; inactive = the rest
Text: DNA G-quadruplex Stabilizer Agents in Combinations in Complex Spheroids
A high-throughput screen of multi-cell type tumor spheroids was designed to identify active combinations of DNA G-quadruplex stabilizer agents and targeted small molecules. Complex spheroids include a stromal component modeled by human endothelial cells (HUVEC) and fibroblasts modeled by human mesenchymal stem cells (MSCs). The concentration ranges selected for each drug and investigational agent were based upon clinically achievable concentrations if the clinical Cmax of the agent was known.
Compounds. The drugs and investigational agents: pidnarulex (CX-5461; NSC782164), APTO-253 (NSC789042), BRACO-19 (NSC847499), peposertib (NSC802822), ceralasertib (NSC780249), elimusertib (NSC800525), camonsertib (NSC841442), AZD-1390 (NSC803789), olaparib (NSC753686), talazoparib (NSC767125), ART-558 (NSC835418), sotorasib (NSC818433), MRTX-1133 (NSC836407), SN-38 (NSC673596), topotecan (NSC609699), etoposide (NSC141540), doxorubicin (NSC123127), gemcitabine (NSC613327), 5-fluorouracil (NSC19893), paclitaxel (NSC125973), vemurafenib (NSC761431), panobinostat (NSC761190), R-306465 (JNJ-16241199; NSC773264), adavosertib (NSC754352), TP-3654 (NSC805149), carboplatin (NSC241240), KSQ-4279 (NSC840948), and staurosporine (NSC755774) were obtained from the National Cancer Institute (NCI) Developmental Therapeutics Program Chemical Repository (34). The FDA-approved anticancer drug set is available from the NCI Developmental Therapeutics Program. […] The stock solutions were prepared in dimethyl sulfoxide (DMSO, Sigma-Aldrich, St. Louis, MO, cat. D2650) at 800-fold the tested concentration and stored at -70 degrees C prior to their use. All drugs and investigational agents were tested over a range starting from a high concentration at or near the clinical Cmax and decreasing in half-log increments. If the clinical Cmax for an agent had not been determined, the highest concentration tested was 10 microM.
2.3 Cell Culture. All cells were maintained in an incubator at 37 degrees C and 5% CO2 with 95% humidity. The PDC lines were cultured according to standard operating procedures established by the NCI PDMR. All PDCs were thawed and cultured in Matrigel-coated flasks prepared with a working solution of 1X Ham's F-12 nutrient mix, without supplementation (Invitrogen, cat. 11765054), 100 U/mL penicillin-streptomycin (Invitrogen, cat. 15140122), and 2.5% Matrigel (Corning Inc., cat. 354248) for the first three passages. The 857933-349-R-J2-PDC line was cultured in 6C/Colon 1B media, which includes advanced DMEM/F-12 (Thermo Fisher Scientific, cat. 12634028), 10 mM HEPES (Thermo Fisher Scientific, cat. 15630080), 1X GlutaMAX supplement (Thermo Fisher Scientific, cat. 35050061), 0.1 mg/mL primocin (InvivoGen, cat. ant-pm-2), 10% defined fetal bovine serum, heat inactivated (HyClone Laboratories Inc., cat. SH30070.03HI), 50% L-WRN conditioned media (ATCC, cat. CRL-3276), 1.25 mM N-Acetyl-L-cysteine (Sigma-Aldrich, cat. A9165), 10 mM nicotinamide (Sigma-Aldrich, cat. N0636), 1X B-27 supplement (Thermo Fisher Scientific, cat. 17504044), 1X N-2 supplement (Thermo Fisher Scientific, cat. 17502048), 10 microM Y-27632 dihydrochloride (Tocris Bioscience, cat. 1254), and 50 ng/mL human EGF recombinant protein (Thermo Fisher Scientific, cat. PHG0311). The 485176-168-R4-J1-PDC line was cultured in Panc media, which includes all 6C/Colon 1B media components plus 100 ng/mL human FGF-10 (Thermo Fisher Scientific, cat. 100-26), 500 nM SB-431542 (Selleckchem, cat. S1067), and gastrin (Tocris, cat. 3006).
[…]

[1] = second compound 0.0316 µM, first compound 0.0316 µM
[2] = second compound 0.0316 µM, first compound 0.1 µM
[3] = second compound 0.0316 µM, first compound 0.316 µM
[4] = second compound 0.0316 µM, first compound 1 µM
[5] = second compound 0.0316 µM, first compound 3.16 µM
[6] = second compound 0.0316 µM, first compound 10 µM
[7] = second compound 0.1 µM, first compound 0.0316 µM
[8] = second compound 0.1 µM, first compound 0.1 µM
[9] = second compound 0.1 µM, first compound 0.316 µM
[10] = second compound 0.1 µM, first compound 1 µM
[11] = second compound 0.1 µM, first compound 3.16 µM
[12] = second compound 0.1 µM, first compound 10 µM
[13] = second compound 0.316 µM, first compound 0.0316 µM
[14] = second compound 0.316 µM, first compound 0.1 µM
[15] = second compound 0.316 µM, first compound 0.316 µM
[16] = second compound 0.316 µM, first compound 1 µM
[17] = second compound 0.316 µM, first compound 3.16 µM
[18] = second compound 0.316 µM, first compound 10 µM
[19] = second compound 1 µM, first compound 0.0316 µM
[20] = second compound 1 µM, first compound 0.1 µM
[21] = second compound 1 µM, first compound 0.316 µM
[22] = second compound 1 µM, first compound 1 µM
[23] = second compound 1 µM, first compound 3.16 µM
[24] = second compound 1 µM, first compound 10 µM
[25] = second compound 3.16 µM, first compound 0.0316 µM
[26] = second compound 3.16 µM, first compound 0.1 µM
[27] = second compound 3.16 µM, first compound 0.316 µM
[28] = second compound 3.16 µM, first compound 1 µM
[29] = second compound 3.16 µM, first compound 3.16 µM
[30] = second compound 3.16 µM, first compound 10 µM
[31] = second compound 10 µM, first compound 0.0316 µM
[32] = second compound 10 µM, first compound 0.1 µM
[33] = second compound 10 µM, first compound 0.316 µM
[34] = second compound 10 µM, first compound 1 µM
[35] = second compound 10 µM, first compound 3.16 µM
[36] = second compound 10 µM, first compound 10 µM
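Also: spheroids exposed to compounds for seven days.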

O=c1[nH]cc(F)c(=O)[nH]1 + Cc1[nH]c2ccc(F)cc2c1-c1nc2c3cccnc3c3ncccc3c2[nH]1
> 10 µM: IC50 (second compound 0.0316 µM) | IC50 (second compound 0.1 µM) | IC50 (second compound 0.316 µM) | IC50 (second compound 1 µM) | IC50 (second compound 3.16 µM) | IC50 (second compound 10 µM)
inactive: viability, T/C [1] 85% | viability, T/C [2] 77.8% | viability, T/C [3] 113% | viability, T/C [4] 105% | viability, T/C [5] 80.4% | viability, T/C [6] 55.3% | viability, T/C [7] 117% | viability, T/C [8] 87.6% | viability, T/C [9] 102% | viability, T/C [10] 99.6% | viability, T/C [11] 69.2% | viability, T/C [12] 66.4% | viability, T/C [13] 119% | viability, T/C [14] 83.7% | viability, T/C [15] 103% | viability, T/C [16] 94.3% | viability, T/C [17] 95.5% | viability, T/C [18] 64.8% | viability, T/C [19] 87.2% | viability, T/C [20] 104% | viability, T/C [21] 95.8% | viability, T/C [22] 71.6% | viability, T/C [23] 82.1% | viability, T/C [24] 53.9% | viability, T/C [25] 90% | viability, T/C [26] 84.6% | viability, T/C [27] 98.8% | viability, T/C [28] 96.8% | viability, T/C [29] 76.2% | viability, T/C [30] 59% | viability, T/C [31] 104% | viability, T/C [32] 109% | viability, T/C [33] 93.6% | viability, T/C [34] 92.6% | viability, T/C [35] 103% | viability, T/C [36] 61.6%

CC1COCCN1c1cc(-c2ccnn2C)c2ccnc(-c3ccn[nH]3)c2n1 (centres undefined) + Cc1cnc(CNC(=O)c2c(=O)c3ccc(N4CCCN(C)CC4)nc3n3c2sc2ccccc23)cn1
< 0.0316 µM: IC50 (second compound 0.0316 µM) | IC50 (second compound 0.1 µM) | IC50 (second compound 0.316 µM) | IC50 (second compound 1 µM) | IC50 (second compound 3.16 µM) | IC50 (second compound 10 µM)
active: viability, T/C [24] 6.94% | viability, T/C [29] 8.14% | viability, T/C [30] 0.53% | viability, T/C [35] 0.68% | viability, T/C [36] 0.18%
inactive: viability, T/C [1] 49.1% | viability, T/C [2] 50.3% | viability, T/C [3] 42.2% | viability, T/C [4] 24.7% | viability, T/C [5] 24.3% | viability, T/C [6] 21.9% | viability, T/C [7] 45.4% | viability, T/C [8] 42.9% | viability, T/C [9] 25.3% | viability, T/C [10] 25.7% | viability, T/C [11] 28.9% | viability, T/C [12] 20.7% | viability, T/C [13] 45.5% | viability, T/C [14] 44.4% | viability, T/C [15] 37.2% | viability, T/C [16] 33.5% | viability, T/C [17] 22.9% | viability, T/C [18] 20.9% | viability, T/C [19] 43.7% | viability, T/C [20] 51.7% | viability, T/C [21] 46% | viability, T/C [22] 43.8% | viability, T/C [23] 22.9% | viability, T/C [25] 50.1% | viability, T/C [26] 43.8% | viability, T/C [27] 46.6% | viability, T/C [28] 36.6% | viability, T/C [31] 51.9% | viability, T/C [32] 42% | viability, T/C [33] 46.3% | viability, T/C [34] 22.2%
